What follows are compounds tested against T1, recombinant human mPGES-1 (Homo sapiens, UniProt O14684) (assay: mPGES-1 HTRF assay (inhibition of PGE2 formation from PGH2)). Details: HTRF assay.
T1 construct: made in house; host or cells: Rosetta E. coli (membrane/microsome fraction)
T1 sequence (O14684 1-152): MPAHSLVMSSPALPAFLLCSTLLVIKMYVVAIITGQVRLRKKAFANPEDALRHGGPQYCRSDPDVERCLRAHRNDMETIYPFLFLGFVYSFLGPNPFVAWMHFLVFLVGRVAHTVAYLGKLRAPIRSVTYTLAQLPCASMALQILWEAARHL
Type: biochemical
Method in brief: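 Microsomes of E. coli expressing human mPGES-1, in 0.1 M KPi pH 7.4 with 2.5 mM GSH, preincubated 25 min at room temperature with inhibitor, then given PGH2 for 1 min before FeCl2 acidic stop. PGE2 quantified by HTRF (665/620 nm ratio) against synthetic PGE2 standard curve; percent inhibition versus controls.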

IC50, 3 nM:
Cn1c(Nc2cc(CNC(=O)C(C)(F)F)ccc2Cl)nc2cc(C(=O)Nc3ccc(Br)cc3)c(OCC(F)F)cc21 [Example 72, N-(4-Bromo-phenyl)-2-(2-chloro-5-{[(1,1-difluoro-ethylcarbonyl)-amino]-methyl}-phenylamino)-6-(2,2-difluoro-ethoxy)-1-methyl-1H-benzimidazole-5-carboxylic acid amide]
CC(C(=O)NCc1ccc(Cl)c(Nc2nc3cc(C(=O)Nc4ccc(Br)cc4)c(OCC(F)F)cc3n2C)c1)C(F)(F)F (centres unmarked) [Example 73, N-(4-Bromo-phenyl)-2-(2-chloro-5-{[(1-trifluoromethyl-ethyl-carbonyl)-amino]-methyl}-phenylamino)-6-(2,2-difluoro-ethoxy)-1-methyl-1H-benzimidazole-5-carboxylic acid amide]
Cn1c(Nc2cc(CNC(=O)C(C)(N)C(F)(F)F)ccc2Cl)nc2cc(C(=O)Nc3ccc(Br)cc3)c(OCC(F)F)cc21 (centres unmarked) [Example 75, N-(4-Bromo-phenyl)-2-(2-chloro-5-{[(1-amino-1-trifluoromethyl-ethyl-carbonyl)-amino]-methyl}-phenylamino)-6-(2,2-difluoro-ethoxy)-1-methyl-1H-benzimidazole-5-carboxylic acid amide]
Cn1c(Nc2cc(CNC(=O)C3(O)CC3)ccc2Cl)nc2cc(C(=O)Nc3ccc(Br)cc3)c(OCC(F)F)cc21 [Example 76, N-(4-Bromo-phenyl)-2-(2-chloro-5-{[(1-hydroxycyclopropanecarbonyl)-amino]-methyl}-phenylamino)-6-(2,2-difluoro-ethoxy)-1-methyl-1H-benzimidazole-5-carboxylic acid amide]
Cn1c(Nc2cc(CNS(=O)(=O)C(C)(C)C)ccc2Cl)nc2cc(C(=O)Nc3ccc(Br)cc3)c(OCC(F)F)cc21 [Example 82, N-(4-Bromo-phenyl)-2-(2-chloro-5-{[(tert-butylsulfonyl)-amino]-methyl}-phenylamino)-6-(2,2-difluoro-ethoxy)-1-methyl-1H-benzimidazole-5-carboxylic acid amide]
Cn1c(Nc2cc(CNC(=O)C3(C(F)(F)F)CC3)ccc2C(F)(F)F)nc2cc(C(=O)Nc3ccc(Br)cc3)c(OCC(F)F)cc21 [Example 83, N-(4-Bromo-phenyl)-2-(2-trifluoromethyl-5-{[(1-trifluoromethyl-cyclopropanecarbonyl)-amino]-methyl}-phenylamino)-6-(2,2-difluoro-ethoxy)-1-methyl-1H-benzimidazole-5-carboxylic acid amide]
COc1cc2[nH]c(Nc3cc(CNC(=O)C4(O)CC4)ccc3C(F)(F)F)nc2cc1C(=O)N[C@H]1CC[C@H](C(F)(F)F)CC1 [Example 94, N-(trans-4-Trifluoromethyl-cyclohex-1-yl)-2-(2-trifluoromethyl-5-{[(1-hydroxy-cyclopropane-carbonyl)amino]-methyl}-phenylamino)-6-methoxy-1H-benzimidazole-5-carboxylic acid amide]

IC50, 1 nM:
Cn1c(Nc2cc(CNC(=O)C(C)(C)C)ccc2Cl)nc2cc(C(=O)Nc3ccc(F)c(Cl)c3)c(OCC(F)F)cc21 [Example 86, N-(3-Chloro-4-fluoro-phenyl)-2-(2-chloro-5-{[(tert-butylcarbonyl)-amino]-methyl}-phenylamino)-6-(2,2-difluoro-ethoxy)-1-methyl-1H-benzimidazole-5-carboxylic acid amide]
Cn1c(Nc2cc(CNC(=O)C(C)(C)C)ccc2Cl)nc2cc(C(=O)NCC#Cc3ccccc3)c(OCC(F)F)cc21 [Example 90, N-(3-Phenylpropargyl)-2-(2-chloro-5-{[(tert-butylcarbonyl)-amino]-methyl}-phenylamino)-6-(2,2-difluoro-ethoxy)-1-methyl-1H-benzimidazole-5-carboxylic acid amide]
Cn1c(Nc2cc(CNC(=O)C(C)(C)C)ccc2C(F)(F)F)nc2cc(C(=O)N[C@H]3CC[C@H](C(F)(F)F)CC3)c(OCC(F)F)cc21 [Example 95, N-(trans-4-Trifluoromethyl-cyclohex-1-yl)-1-methyl-2-(2-trifluoromethyl-5-{[(tert-butylcarbonyl)-amino]-methyl}-phenylamino)-6-(2,2-difluoro-ethoxy)-1H-benzimidazole-5-carboxylic acid amide]
CC(C)(C)C(=O)NCc1ccc(C(F)(F)F)c(Nc2nc3cc(C(=O)N[C@H]4CC[C@H](C(F)(F)F)CC4)c(OCC(F)F)cc3[nH]2)c1 [Example 96, N-(trans-4-Trifluoromethyl-cyclohex-1-yl)-2-(2-trifluoromethyl-5-{[(tert-butylcarbonyl)-amino]-methyl}-phenylamino)-6-(2,2-difluoro-ethoxy)-1H-benzimidazole-5-carboxylic acid amide]

IC50, 2 nM:
Cn1c(Nc2cc(CN[S+]([O-])C(C)(C)C)ccc2Cl)nc2cc(C(=O)Nc3ccc(Br)cc3)c(OCC(F)F)cc21 (centres unmarked) [Example 81, N-(4-Bromo-phenyl)-2-(2-chloro-5-{[(tert-butylsulfinyl)-amino]-methyl}-phenylamino)-6-(2,2-difluoro-ethoxy)-1-methyl-1H-benzimidazole-5-carboxylic acid amide]
Cn1c(Nc2cc(CNC(=O)C3(C(F)(F)F)CC3)c(F)cc2Cl)nc2cc(C(=O)Nc3ccc(Br)cc3)c(OCC(F)F)cc21 [Example 85, N-(4-Bromophenyl)-2-(2-chloro-4-fluoro-5-{[(1-trifluoromethyl-cyclopropanecarbonyl)amino]methyl}phenylamino)-6-(2,2-difluoroethoxy)-1-methyl-1H-benzo[d]imidazole-5-carboxamide]
Cn1c(Nc2cc(CNC(=O)C(C)(C)C)ccc2Cl)nc2cc(C(=O)NCC3CC3(C)C)c(OCC(F)F)cc21 (centres unmarked) [Example 88, N-(2,2-Dimethylcyclopropyl-methyl)-2-(2-chloro-5-{[(tert-butylcarbonyl)-amino]-methyl}-phenylamino)-6-(2,2-difluoro-ethoxy)-1-methyl-1H-benzimidazole-5-carboxylic acid amide]
Cn1c(Nc2cc(CNC(=O)C(C)(C)C)ccc2Cl)nc2cc(C(=O)NCC3CCC3)c(OCC(F)F)cc21 [Example 89, N-(Cyclobutylmethyl)-2-(2-chloro-5-{[(tert-butylcarbonyl)-amino]-methyl}-phenylamino)-6-(2,2-difluoro-ethoxy)-1-methyl-1H-benzimidazole-5-carboxylic acid amide]
COc1cc2[nH]c(Nc3cc(CNC(=O)C4(C(F)(F)F)CC4)ccc3C(F)(F)F)nc2cc1C(=O)N[C@H]1CC[C@H](C(F)(F)F)CC1 [Example 93, N-(trans-4-Trifluoromethyl-cyclohex-1-yl)-2-(2-trifluoromethyl-5-{[(1-trifluoromethylcyclopropane-carbonyl)amino]-methyl}-phenylamino)-6-methoxy-1H-benzimidazole-5-carboxylic acid amide]

IC50, 7 nM:
COc1cc2[nH]c(Nc3cc(CNC(=O)C(N)C(F)(F)F)ccc3C(F)(F)F)nc2cc1C(=O)N[C@H]1CC[C@H](C(F)(F)F)CC1 (stereo partly drawn) [Example 92, 2-({5-[(2-Amino-3,3,3-trifluoro-propionyl)amino]methyl}-2-trifluoromethyl-phenylamino)-6-methoxy-N-(trans-4-trifluoromethyl-cyclohex-1-yl)-1H-benzo[d]imidazole-5-carboxamide]

IC50, 9 nM:
Cn1c(Nc2cc(CNC(=O)C3CC3)ccc2Cl)nc2cc(C(=O)Nc3ccc(Br)cc3)c(OCC(F)F)cc21 [Example 80, N-(4-Bromo-phenyl)-2-(2-chloro-5-{[(cyclopropylcarbonyl)-amino]-methyl}-phenylamino)-6-(2,2-difluoro-ethoxy)-1-methyl-1H-benzimidazole-5-carboxylic acid amide]

IC50, 4 nM:
Cn1c(Nc2cc(CNC(=O)c3c(F)cccc3Cl)ccc2Cl)nc2cc(C(=O)Nc3ccc(Br)cc3)c(OCC(F)F)cc21 [Example 74, N-(4-Bromo-phenyl)-2-(2-chloro-5-{[(2-chloro-6-fluorophenylcarbonyl)-amino]-methyl}-phenylamino)-6-(2,2-difluoro-ethoxy)-1-methyl-1H-benzimidazole-5-carboxylic acid amide]
Cn1c(Nc2cc(CNC(=O)C(C)(C)C(F)(F)F)ccc2Cl)nc2cc(C(=O)Nc3ccc(Br)cc3)c(OCC(F)F)cc21 [Example 77, N-(4-Bromo-phenyl)-2-(2-chloro-5-{[(1-methyl-1-trifluoromethyl-ethylcarbonyl)-amino]-methyl}-phenylamino)-6-(2,2-difluoro-ethoxy)-1-methyl-1H-benzimidazole-5-carboxylic acid amide]
CC(=O)NCc1ccc(Cl)c(Nc2nc3cc(C(=O)Nc4ccc(Br)cc4)c(OCC(F)F)cc3n2C)c1 [Example 79, N-(4-Bromo-phenyl)-2-(2-chloro-5-{[(methylcarbonyl)-amino]-methyl}-phenylamino)-6-(2,2-difluoro-ethoxy)-1-methyl-1H-benzimidazole-5-carboxylic acid amide]
Cn1c(Nc2cc(CNC(=O)C3(C(F)(F)F)CC3)c(F)cc2Cl)nc2cc(C(=O)N[C@H]3CC[C@H](C(F)(F)F)CC3)c(OCC(F)F)cc21 [Example 84, 2-(2-Chloro-4-fluoro-5-{[(1-(trifluoromethyl)cyclopropanecarbonyl)amino]methyl}-phenylamino)-6-(2,2-difluoroethoxy)-1-methyl-N-(trans-4-trifluoromethyl-cyclohex-1-yl)-1 H-benzo[d]imidazole-5-carboxamide]
COc1cc2[nH]c(Nc3cc(CNC(=O)OC(C)(C)C)ccc3C(F)(F)F)nc2cc1C(=O)N[C@H]1CC[C@H](C(F)(F)F)CC1 [Example 91, 2-({5-[(tert.Butoxycarbonyl)amino]methyl}-2-trifluoromethyl-phenylamino)-6-methoxy-N-(trans-4-trifluoromethyl-cyclohex-1-yl)-1H-benzo[d]imidazole-5-carboxamide]
